Experiment: Motesanib plasma pharmacokinetics (LC-MS/MS)
Type: in vivo, human
Conditions: for Cmax / AUC / Tmax: human, plasma; for Cmax / AUC: po; for AUC: time 0 to 24 hours; for Tmax: listed as 'Mean'
Protocol: Motesanib PK was assessed by comparing week 1 versus week 4 or 5 (motesanib without and with trebananib, respectively). Serum samples for the evaluation of minimum and maximum observed trebananib concentrations in the plasma were collected immediately before dosing on day 1 of weeks 2, 3, 4, 5, 6, 8, and every 8 weeks thereafter until 4 weeks after the last dose of study treatment. In addition, intensive sampling was conducted at the end of infusion, and 6, 24, 48, and 96 hours following dosing on day 1 of weeks 4 or 5. The samples were analysed for trebananib concentrations employing a validated enzyme-linked immunosorbent assay.
For motesanib, postdose samples were taken at 0.5, 1, 4, 6, and 24 hours during weeks 1 and 5 (without and with trebananib coadministration, respectively). Motesanib plasma concentrations were assessed with a validated liquid chromatography/mass spectrometry (LC-MS/MS) method at Cedra Corporation (Austin, TX).

[1] = 75 mg, motesanib 75 mg oral QD without trebananib, mean
[2] = 125 mg, motesanib 125 mg oral QD without trebananib, mean
[3] = motesanib 75 mg oral QD with trebananib 3 mg kg^−1, mean
[4] = motesanib 125 mg oral QD with trebananib 3 mg kg^−1, mean

Cmax [1]: 466 ng/mL
AUC [1]: 2580 ng·h/mL
Cmax [2]: 559 ng/mL
AUC [2]: 3130 ng·h/mL
Cmax [3]: 507 ng/mL
Cmax [4]: 541 ng/mL
AUC [3]: 3180 ng·h/mL
AUC [4]: 3920 ng·h/mL
Tmax (motesanib 75 mg oral QD with trebananib 3 mg kg^−1): 1 h
Tmax (motesanib 75 mg oral QD without trebananib): 1.1 h
Tmax (motesanib 125 mg oral QD without trebananib): 1 h
Effect of trebananib on motesanib PK (motesanib 75 mg or 125 mg with trebananib 3 mg kg^−1): did not appear to be affected
CL (motesanib 75 mg oral QD without trebananib, mean): 0.348 mL/min/kg
SMILES: CC1(C)CNc2cc(NC(=O)c3cccnc3NCc3ccncc3)ccc21 [Motesanib]

From PMC4294348 (Oncotarget, 2014)
